Experimental findings from patent publication US20030215462A1, “Use of UGT inhibitors to increase bioavailability” (priority 2001, published 2003) are described below.

Values joined by “and” are separate entries in the source; they are usually repeats but may differ in a detail not shown here. Equal values may be shown once.

Common to all, as to format: biochemical
Assay [1] concerns the target T1, UGT enzymes of human liver microsomes (Homo sapiens, UniProt P16662).
T1 construct: residual metabolism (percentage of control), zidovudine glucuronidation; other: liver lot 062101; residual metabolism (percentage of control), zidovudine glucuronidation; residual metabolism (percentage of control)
T1 sequence (P16662 1-529): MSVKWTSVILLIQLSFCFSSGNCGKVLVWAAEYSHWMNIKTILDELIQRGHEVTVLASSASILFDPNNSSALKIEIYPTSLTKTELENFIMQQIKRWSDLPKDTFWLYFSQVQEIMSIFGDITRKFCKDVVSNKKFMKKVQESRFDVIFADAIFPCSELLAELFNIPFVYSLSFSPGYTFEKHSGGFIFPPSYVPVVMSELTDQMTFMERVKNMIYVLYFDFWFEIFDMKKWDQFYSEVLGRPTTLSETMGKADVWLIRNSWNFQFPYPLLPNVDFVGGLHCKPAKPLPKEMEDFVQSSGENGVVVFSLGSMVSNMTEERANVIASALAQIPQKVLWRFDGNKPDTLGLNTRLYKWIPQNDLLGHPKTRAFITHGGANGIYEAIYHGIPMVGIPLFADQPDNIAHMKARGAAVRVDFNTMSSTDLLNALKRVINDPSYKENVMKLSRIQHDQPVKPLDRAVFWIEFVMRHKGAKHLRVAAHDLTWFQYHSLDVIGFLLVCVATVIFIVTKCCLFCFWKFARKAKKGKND
In words: Inhibition of zidovudine glucuronidation in human liver microsomes. The settings on record: liver lot 062101. As for the experimental part:
Compounds were eluted using a binary solvent gradient system where solvent A was dilute phosphoric acid (pH 3) and solvent B was acetonitrile.
Standardized incubations utilized 500 μM zidovudine substrate, 1 mg/ml microsomal protein, 5 mM UDPGA and a 30 min incubation time. […] Int.

For assay [2], the system named is T2, UGT enzymes of human liver microsomes.
T2 construct: percentage of control metabolism, 7-HFC glucuronidation; percentage of control metabolism, 7-HFC glucuronidation
In words: Inhibition of 7-HFC glucuronidation in human liver microsomes. The settings on record: for % of control metabolism (SD, n = 3), 7-HFC glucuronidation: 7-HFC 50 μM, human liver microsomes 100 μg/ml, 15 min.

The test system of assay [3] is UGT enzymes of human liver microsomes. In words: Inhibition of raloxifene glucuronidation (G1, G2) in human liver microsomes. The settings on record: for % of control metabolism (SD, n = 3), raloxifene glucuronide G1 / % of control metabolism (SD, n = 3), raloxifene glucuronide G2: raloxifene 50 μM, human liver microsomes 250 μg/ml, 15 min. The source says:
Compounds were eluted using a binary solvent gradient system. […] Solvent B was methanol. […] Detection was at 280 nm.

Take `CCCCC/C=C\C/C=C\CCCCCCCC(=O)O` [Linoleic acid]: the “residual metabolism (percentage of control), zidovudine glucuronidation” value in assay [1] (inhibitor 500 μM) is on record as 68 (5) %. For the same molecule, the results for the “percentage of control metabolism, 7-HFC glucuronidation” value (shortened to “percentage of control metabolism”) in assay [2] (inhibitor 100 μM), in assay [2] (inhibitor 200 μM) and in assay [2] (inhibitor 500 μM) were 86 (3) %, 77 (4) % and 33 (1) %, respectively. Besides, the figures for the “% of control metabolism (SD, n = 3), 7-HFC glucuronidation” value in assay [2] (inhibitor 100 μM), in assay [2] (inhibitor 200 μM) and in assay [2] (inhibitor 500 μM) were 86 (3) %, 77 (4) % and 33 (1) %, respectively. The results for the “% of control metabolism (SD, n = 3), raloxifene glucuronide G1” value in assay [3] (inhibitor 100 μM) and in assay [3] (inhibitor 500 μM) were 101 (8) % and 29 (0) %, respectively. Also, the “% of control metabolism (SD, n = 3), raloxifene glucuronide G2” value in assay [3] (inhibitor 100 μM) is recorded as 100 (4) %.

Take `COc1cc(CNC(=O)CCCC/C=C/C(C)C)ccc1O` [Capsaicin]: the entries for the “residual metabolism (percentage of control), zidovudine glucuronidation” value in assay [1] (inhibitor 500 μM) and in assay [1] (inhibitor 1000 μM) were 57 (4) % and 34 (1) %, respectively. For the same molecule, the “percentage of control metabolism” value is 69 (1) % in assay [2] (inhibitor 50 μM); 53 (1) % and 57 (0) % in assay [2] (inhibitor 100 μM); 42 (1) % and 44 (1) % in assay [2] (inhibitor 200 μM); 39 (0) % in assay [2] (inhibitor 500 μM). Moreover, the “% of control metabolism (SD, n = 3), 7-HFC glucuronidation” value was 69 (1) % in assay [2] (inhibitor 50 μM); 53 (1), % and 57 (0) % in assay [2] (inhibitor 100 μM); 42 (1), % and 44 (1) % in assay [2] (inhibitor 200 μM); 39 (0) % in assay [2] (inhibitor 500 μM). Besides, the figures for the “% of control metabolism (SD, n = 3), raloxifene glucuronide G1” value in assay [3] (inhibitor 100 μM) and in assay [3] (inhibitor 500 μM) were 55 (4) % and 26 (1) %, respectively. For the same molecule, the “% of control metabolism (SD, n = 3), raloxifene glucuronide G2” value in assay [3] (inhibitor 100 μM) is reported as 69 (4) %; in assay [3] (inhibitor 500 μM) it was 33 (3) %.

`O=C(O)C=Cc1ccccc1` [Cinnamic acid]: in assay [1] (inhibitor 500 μM), the “residual metabolism (percentage of control), zidovudine glucuronidation” value was 97 (3) %. Also, in assay [2] (inhibitor 500 μM), the “% of control metabolism (SD, n = 3), 7-HFC glucuronidation” value is 94 (2) %.

As to `CC(C)=CCC/C(C)=C/CO` [Geraniol], the “residual metabolism (percentage of control), zidovudine glucuronidation” value in assay [1] (inhibitor 100 μM) was 77 (5) %; in assay [1] (inhibitor 200 μM) it was 62 (3) %; in assay [1] (inhibitor 500 μM), 28 (3) % and 25 (0) %; in assay [1] (inhibitor 1000 μM), 9 (1) %. In addition, the “% of control metabolism (SD, n = 3), 7-HFC glucuronidation” value in assay [2] (inhibitor 500 μM) is 75 (0) %.

With `COc1cc(CO)ccc1O` [Vanillyl alcohol], the “residual metabolism (percentage of control), zidovudine glucuronidation” value in assay [1] (inhibitor 500 μM) was 95 (5) %. Also, the “% of control metabolism (SD, n = 3), 7-HFC glucuronidation” value in assay [2] (inhibitor 100 μM) is 79 (1) %; in assay [2] (inhibitor 200 μM), 67 (3) %; in assay [2] (inhibitor 500 μM), 42 (0), % and 42 (0) %.

With `C=CC(C)(O)CCC=C(C)C` (stereo not drawn) [Linalool], the “residual metabolism (percentage of control), zidovudine glucuronidation” value in assay [1] (inhibitor 500 μM) is on record as 73 (5) %. Further, the “% of control metabolism (SD, n = 3), 7-HFC glucuronidation” value in assay [2] (inhibitor 500 μM) is on record as 86 (2) %.

`CC(=O)OC1CC(C)CCC1C(C)C` (stereo not drawn) [Menthyl acetate]: the “residual metabolism (percentage of control), zidovudine glucuronidation” value is recorded as 64 (2) % in assay [1] (inhibitor 200 μM), 35 (1) % in assay [1] (inhibitor 500 μM) and 20 (1) % in assay [1] (inhibitor 1000 μM).

In the case of `COc1ccc2c(c1)c(CC(=O)O)c(C)n2C(=O)c1ccc(Cl)cc1` [Indomethacin, reference compound], the “residual metabolism (percentage of control), zidovudine glucuronidation” value in assay [1] (inhibitor 500 μM) was 68 (7) %. The “% of control metabolism (SD, n = 3), 7-HFC glucuronidation” value is 82 (0) % in assay [2] (inhibitor 100 μM); 73 (1) % in assay [2] (inhibitor 200 μM); 49 (2), % and 48 (1) % in assay [2] (inhibitor 500 μM).

In the case of `CCCCCCCCC(=O)NCc1ccc(O)c(OC)c1` [N-Vanillylnonanamide], the “residual metabolism (percentage of control), zidovudine glucuronidation” value in assay [1] (inhibitor 500 μM) is reported as 67 (1) %; in assay [1] (inhibitor 1000 μM) it was 40 (1) %. For the same molecule, the results for the “percentage of control metabolism” value in assay [2] (inhibitor 100 μM), in assay [2] (inhibitor 200 μM) and in assay [2] (inhibitor 500 μM) were 69 (1) %, 63 (2) % and 48 (1) %, respectively. For the same molecule, the “% of control metabolism (SD, n = 3), 7-HFC glucuronidation” value is on record as 69 (1) % in assay [2] (inhibitor 100 μM), 63 (2) % in assay [2] (inhibitor 200 μM) and 48 (1) % in assay [2] (inhibitor 500 μM). Moreover, the “% of control metabolism (SD, n = 3), raloxifene glucuronide G1” value was 48 (1) % in assay [3] (inhibitor 100 μM) and 14 (1) % in assay [3] (inhibitor 500 μM). Also, the “% of control metabolism (SD, n = 3), raloxifene glucuronide G2” value in assay [3] (inhibitor 100 μM) was 62 (1) %; in assay [3] (inhibitor 500 μM), 17 (2) %.

As for `Cc1cc(=O)oc2cc(O)ccc12` [4-Methylumbelliferone, reference compound], the “residual metabolism (percentage of control), zidovudine glucuronidation” value in assay [1] (inhibitor 500 μM) is 81 (2) %. Moreover, in assay [2] (inhibitor 100 μM), the “percentage of control metabolism” value is recorded as 78 (1) % and the “% of control metabolism (SD, n = 3), 7-HFC glucuronidation” value is on record as 78 (1) %. Further, in assay [2] (inhibitor 200 μM), the “percentage of control metabolism” value is 64 (1) % and the “% of control metabolism (SD, n = 3), 7-HFC glucuronidation” value is on record as 64 (1) %. In addition, in assay [2] (inhibitor 500 μM), the “percentage of control metabolism” value is 45 (1) % and 47 (2) %; the “% of control metabolism (SD, n = 3), 7-HFC glucuronidation” value was 45 (1), % and 47 (2) %. Further, in assay [3], the “% of control metabolism, raloxifene G1” value was 35 (3), 39 (2) % and 37 (1), 40 (1) % and 51 (1), 53 (2) % and 69 (4), 71 (8) %; the “% of control metabolism, raloxifene G2” value was 35 (3), 39 (2) % and 37 (1), 40 (1) % and 51 (1), 53 (2) % and 69 (4), 71 (8) %.

In the case of `COc1cc(CNC(=O)CCCCCCC(C)C)ccc1O` [Dihydrocapsaicin], the “residual metabolism (percentage of control), zidovudine glucuronidation” value is 50 (1) % in assay [1] (inhibitor 500 μM) and 42 (2) % in assay [1] (inhibitor 1000 μM). Further, the results for the “percentage of control metabolism” value in assay [2] (inhibitor 100 μM), in assay [2] (inhibitor 200 μM) and in assay [2] (inhibitor 500 μM) were 60 (3) %, 52 (2) % and 42 (2) %, respectively. Besides, the “% of control metabolism (SD, n = 3), 7-HFC glucuronidation” value in assay [2] (inhibitor 100 μM) is on record as 60 (3) %; in assay [2] (inhibitor 200 μM) it was 52 (2) %; in assay [2] (inhibitor 500 μM), 42 (2) %. The “% of control metabolism (SD, n = 3), raloxifene glucuronide G1” value in assay [3] (inhibitor 100 μM) is reported as 49 (1) %; in assay [3] (inhibitor 500 μM), 18 (1) %. In addition, the “% of control metabolism (SD, n = 3), raloxifene glucuronide G2” value in assay [3] (inhibitor 100 μM) is 68 (2) %; in assay [3] (inhibitor 500 μM), 26 (1) %.

On to `CC1=C(/C=C/C(C)=C/C=C/C(C)=C/CO)C(C)(C)CCC1` [Retinol], for which the “residual metabolism (percentage of control), zidovudine glucuronidation” value in assay [1] (inhibitor 500 μM) was 76 (2) %. Further, the “percentage of control metabolism” value in assay [2] (inhibitor 100 μM) is recorded as 59 (1) %; in assay [2] (inhibitor 200 μM), 39 (1) %; in assay [2] (inhibitor 500 μM), 25 (1) %. Also, the “% of control metabolism (SD, n = 3), 7-HFC glucuronidation” value in assay [2] (inhibitor 100 μM) is reported as 59 (1) %; in assay [2] (inhibitor 200 μM), 39 (1) %; in assay [2] (inhibitor 500 μM) it was 25 (1) %.
